# Like-named read-outs stand apart in the source and are kept apart here.
# Test system: hepsin mRNA in LNCaP cells
# Conditions: DHT 10 nM, 24 or 72 hours, Northern blot, compared to GAPDH
# Protocol: The prostate cancer cell lines, LNCaP, were obtained from ATCC. The LNCaP cells were treated with dihydrotestosterone (Sigma A 8380) in order to study the response of hepsin mRNA expression to androgens. The confluent cells were cultured in growth medium containing charcoal-stripped FBS for 24 hours. DHT was added to each flask at 10 nM. For control cells, ethanol was added as a vehicle control. The cells were incubated for 24 or 72 hours.
# Total RNA was isolated from the cell lines using the RNeasy Maxi Kit (Qiagen), as described in section E above. The Northern gel and blot methods were performed as described in section A above.
# The fold-increase of the amount of hepsin mRNA compared to GAPDH was performed according to section C above.
compound,measurement,setting,value
"C[C@]12CCC(=O)C[C@@H]1CC[C@@H]1[C@@H]2CC[C@]2(C)[C@@H](O)CC[C@@H]12 [DHT, dihydrotestosterone]",hepsin mRNA transcript levels,,increased
same,hepsin mRNA transcript levels,listed as dihydrotestosterone,Up-regulation

# Source: patent publication US20040132156A1, “Modified hepsin molecules having a substitute activation sequence and uses thereof” (Schering Aktiengesellschaft, priority 2002, published 2004)
